Reference: patent US20240091254A1, “WNT AGONISTS FOR PREVENTION OF CANCER” (ACADEMISH MEDISCH CENTRUM, priority 2021, published 2024)

Legend:
[1] = test system: Wnt pathway (TOP-GFP reporter); assay: TOP-GFP Wnt reporter assay in MEFs; type: cell-based, mouse
Procedure: Mouse embryonic fibroblasts (MEFs, ATCC) and HEK293T (ATCC) cells were both cultured in Dulbecco's Modified Eagle's Medium (DMEM) supplemented with 10% fetal calf serum (FCS), 1% Glutamine, and antibiotic penicillin and streptomycin. Cells were maintained at 37° C. in humidified air containing 5% CO2. All cell lines were routinely checked for mycoplasm contamination, no cell line authentication was performed.
Mouse embryonic fibroblasts (MEFs) were cultured in Dulbecco's Modified Eagle's Medium (DMEM) supplemented with 10% fetal calf serum (FCS), 1% Glutamine, and antibiotic penicillin and streptomycin. MEFs were stably transduced with Wnt reporter TOP-GFP (Addgene plasmid #35491). For TOP-GFP assays, cells were stimulated with Wnt3A conditioned medium for 24 hours after which GFP positivity was measured by flow cytometry.

WT organoids = assay: Murine WT intestinal organoids incubated with conditioned medium or recombinant Wnt antagonists (expansion, clonogenicity); type: cell-based, mouse; settings: for Expansion and clonogenicity of WT organoids: overexpression CM or recombinant protein: NOTUM 2 μg/mL, WIF1 5 μg/mL, DKK2 1 μg/mL
Procedure: Murine intestinal crypts were isolated from Lgr5-EGFP-IRES-Cre^ERT2, Lgr5-EGFP-IRES-Cre^ERT2;Ape/or Villin-Cre^ERT2;Apc^fl/fl mice as described by Sato et al.^35. In short, intestines were removed from the mouse and washed thoroughly with ice-cold PBS. Next, the intestine was opened longitudinally and the villi were gently scraped off by a glass cover slide. The intestine was cut into pieces of 5×5 mm and incubated in 2 mM EDTA solution for 30 min. at 4° C. After removal of the EDTA, the crypts were resuspended in ice-cold 1% FCS in PBS by vigorously shaking the tube and passing the supernatant through a 70 µm strainer. Isolated crypts were resuspended in Matrigel® (Corning) and seeded in pre-heated 24-well plates, supplemented with basal organoid medium consisting of advanced DMEM/F12 medium (Gibco) containing 100× N2 and 50× B27 supplements, 100× Glutamax, 5 mM HEPES, 1 mM N-acetyl-L-cysteine (Sigma), and 100× antibiotic/antimycotic (all Gibco). The basal organoid medium was freshly supplemented with the following growth factors: mouse EGF 50 ng/ml (TEBU-BIO), R-spondin (conditioned medium), Noggin (conditioned medium). The first two days after crypt isolation CHIR99021 (Axon Medchem) and ROCK inhibitor (Sigma) was added to the medium. Ctnnb1^S organoids expressing a constitutive active variant of β-catenin were generated as described by Adam et al.^36. For in vitro recombination of loxP flanked alleles, 1 μM 40H-Tamoxifen (Sigma) was added to the medium. Recombination of the Apc gene was validated by digital droplet PCR (Bio-Rad) using EvaGreen® Supermix (Bio-Rad). Lgr5-EGFP-IRES-Cre^ERT2 organoids, referred to as wild type (WT) organoids, were stably transduced with a red fluorescent mCherry construct (LeGO-C2, Addgene #27399). The in vitro recombined Lgr5-EGFP-IRES-Cre^ERT2;Apc^fl/fl, referred to as Apc^−/−, were stably transduced with a green fluorescent Venus construct (LeGO-V2, Addgene #27340). During competition assays, organoids were plated in equal numbers in 24-well plates and full wells were scanned over time by the EVOS FL Cell Imaging System (Thermo Scientific). Conditioned medium (CM) was taken from 2-3 day old WT or Apc^−/− organoid cultures and freshly supplemented with growth factors R-spondin, Noggin and mEGF. During the competition assays the medium (normal and conditioned) was replaced every other day to minimize effects of medium depletion. To assess the effect of medium depletion, CM was 10× concentrated using 10 kDa Amicon® centrifugal filters (Millipore) and added to fresh ENR medium as 1:10. […] Recombinant proteins NOTUM (2 μg/mL, R&D, 9150-NO-050), WIF1 (5 μg/mL, R&D, 135-WF-050) and DKK2 (1 μg/mL, R&D, 2435-DKB-010) were freshly added to the culture medium, medium was refreshed every other day.

O=C([O-])[O-].[Li+].[Li+] [Li2CO3, lithium carbonate]
Wnt signalling activation in Wnt reporter assay, Li2CO3 compared with LiCl ([1]; comparable concentrations (5 or 10 mM)): activated the same amount of Wnt signalling

Wif1: Wnt antagonist Wnt inhibitory factor 1, as overexpression CM or recombinant protein
Expansion and clonogenicity of WT organoids (WT organoids): ability to reduce expansion and clonogenicity of WT organoids

Cn1c(=O)c2c(ncn2C)n(C)c1=O [caffeine]
Clonogenic capacity of wild type intestinal organoids with Apc-mutant CM (WT organoids; Apc-mutant CM containing Notum, 200 μM caffeine): rescue in clonogenic capacity
Clonogenic capacity of organoids with CM of Apc-mutant, Notum KO organoids (WT organoids; Apc-mutant Notum KO CM, 200 μM caffeine): no effect
Rescue of Notum-mediated inhibition of Wnt signalling in Wnt reporter assay ([1]; 200 μM caffeine): can rescue inhibition of Wnt singalling in vitro

Cc1c[nH]c(-c2cnc(NCCNc3ccc(C#N)cn3)nc2-c2ccc(Cl)cc2Cl)n1 [CHIR99021]
Resistance to Apc-/- CM induced reduction in proliferation and clonogenicity (WT organoids; WT organoids, Apc-/- CM, 2.5 μM CHIR): resistant to the Apc^−/− CM induced reduction in proliferation and clonogenicity
Effect on Apc-/- CM reduction of Wnt3a mediated Wnt activation (TOP-GFP) ([1]; MEFs, TOP-GFP reporter, 2.5 μM CHIR99021): completely abrogated this effect

B1: Notum: Wnt antagonist Palmitoleoyl-Protein Carboxylesterase, as overexpression CM or recombinant protein (protein, UniProt Q6P988 20-496, looked up)
Palmitoleoyl-protein …: SEGRKTWRRRGQQPPPPPRTEAAPAAGQPVESFPLDFTAVEGNMDSFMAQVKSLAQSLYPCSAQQLNEDLRLHLLLNTSVTCNDGSPAGYYLKESRGSRRWLLFLEGGWYCFNRENCDSRYDTMRRLMSSRDWPRTRTGTGILSSQPEENPYWWNANMVFIPYCSSDVWSGASSKSEKNEYAFMGALIIQEVVRELLGRGLSGAKVLLLAGSSAGGTGVLLNVDRVAEQLEKLGYPAIQVRGLADSGWFLDNKQYRHTDCVDTITCAPTEAIRRGIRYWNGVVPERCRRQFQEGEEWNCFFGYKVYPTLRCPVFVVQWLFDEAQLTVDNVHLTGQPVQEGLRLYIQNLGRELRHTLKDVPASFAPACLSHEIIIRSHWTDVQVKGTSLPRALHCWDRSLHDSHKASKTPLKGCPVHLVDSCPWPHCNPSCPTVRDQFTGQEMNVAQFLMHMGFDMQTVAQPQGLEPSELLGMLSNGS
Expansion and clonogenicity of WT organoids (WT organoids): ability to reduce expansion and clonogenicity of WT organoids

B2: Dkk2: Wnt antagonist Dickkopf-related protein 2, as overexpression CM or recombinant protein (protein, UniProt Q9UBU2 34-259, looked up)
Dickkopf-related protein 2: KLNSIKSSLGGETPGQAANRSAGMYQGLAFGGSKKGKNLGQAYPCSSDKECEVGRYCHSPHQGSSACMVCRRKKKRCHRDGMCCPSTRCNNGICIPVTESILTPHIPALDGTRHRDRNHGHYSNHDLGWQNLGRPHTKMSHIKGHEGDPCLRSSDCIEGFCCARHFWTKICKPVLHQGEVCTKQRKKGSHGLEIFQRCDCAKGLSCKVWKDATYSSKARLHVCQKI
Expansion and clonogenicity of WT organoids (WT organoids): ability to reduce expansion and clonogenicity of WT organoids
